The text below walks through data of patent publication US4652646A, “Thiazolo[3,2-a][1,2,3]triazolo[4,5-d]pyrimidine and [1,3,4]thiadiazolo[3,2-a][1,2,3]triazolo[4,5-d]pyrimidine derivatives” (Daiichi Seiyaku Co., Ltd., priority 1984, dated 1987).

Series [1] can be described thus: Acute oral toxicity (LD50) in rats. The note with it: rat, in vivo, oral administration.
The subject of series [2] is release of histamine induced by passive peritoneal anaphylaxis (PPA) reaction. The series can be described thus: Passive Peritoneal Anaphylaxis (PPA) test: inhibition of histamine release. The note with it: ip, 5 min; rat PPA; 1 mg/kg intraperitoneally 30 seconds before egg albumin. It counts as in vivo, Sprague-Dawley male rats. Here is the method:
(§1) 1 mg of egg albumin dissolved in 0.2 ml of saline was intramuscularly administered to each of Sprague-Dawley male rats weighing 300 to 350 g (Charles River Japan Inc.), and then 1 ml of a suspension of sterilized Bordetella pertussis (2×10^10 cells) in saline was administered intraperitoneally to the rats. After 14 days, blood was drawn from the rats to obtain an antiserum.
(§2) The test was conducted according to the method of Orange et al [Orange, R. P., Stechschulte, D. J., Austen, K. F., J. Immunol., 105, pp1087-1095 (1970)]. Sprague-Dawley male rats weighing 250 to 400 g (5 rats per group) were passively sensitized by administering 5 ml of 5-fold dilution antiserum (prepared by diluting the above antiserum with saline). 2 hours later, 5 ml of an egg albumin solution prepared by dissolving 2 mg of egg albumin in phosphate buffered saline containing 0.9 mM of calcium chloride was administered intraperitoneally to the rats. After 5 minutes, the rats were sacrificed by decapitation, and peritoneal fluid was pooled and centrifuged at 300×G at 4° C. for 10 minutes. Then, amounts of SRS-A and histamine in the supernatant were determined.
The quantitative determination of histamine was carried out according to the method of Shore et al [Shore, P. A., Bunkhalter, A. H., Cohn, V. H., J. Pharmacol. Exp. Ther., 127, pp182-186 (1959)], and the total released amount of histamine per rat (μg/rat) was calculated.
(§3) In this test, the test compound of this invention was administered as follows. 2 mg of a test compound was dissolved in 10 ml of phosphate buffered saline containing 0.9 mM of calcium chloride, an equimolar amount of sodium hydroxide to test compound, 2% of dimethyl sulfoxide and 2% of ethanol, and the solution was administered intraperitoneally to the rats at a dose of 1 mg/kg 30 seconds before the injection of egg albumin for inducing PPA. For a control group, the same solution without test compound and sodium hydroxide was administered.
(§4) The inhibitory activity on release of histamine and SRS-A by the PPA reaction in the treated group was calculated by the following formula: [formula] wherein: a represents a mean value of released amount in the control group.
(§5) b represents a mean value of released amount in the treated group.
(§6) c represents a mean value of spontaneously released amount.

The test system of series [3] is release of SRS-A induced by passive peritoneal anaphylaxis (PPA) reaction. The series can be described thus: Passive Peritoneal Anaphylaxis (PPA) test: inhibition of SRS-A release. It counts as in vivo, Sprague-Dawley male rats. The conditions noted are these: rat PPA; for inhibition in vivo at 1 mg/kg: ip, 5 min, 1 mg/kg intraperitoneally 30 seconds before egg albumin. Here is the method: as §1, §2
The quantitative determination of SRS-A was carried out according to the method of Stechschulte et al [Stechschulte, D. J., Auste, K. F., Bloch, K. J., J. Exp. Med., 125, pp127-147 (1967)] using a guinea pig ileum specimen in the presence of mepyramine and atropine. The amount of SRS-A was expressed in terms of unit, i.e., one unit of SRS-A activity was defined as the concentration required to produce a contraction of guinea pig ileum equal in amplitude to that produced by 5 ng of histamine, and the total released amount of SRS-A per rat (unit/rat) was calculated.
as §3, §4, §5, §6

For series [4], the system named is passive cutaneous anaphylaxis (PCA) reaction. The series can be described thus: Passive cutaneous anaphylaxis (PCA) test. Format: in vivo, Sprague-Dowley male rats. The note with it: rat PCA; for inhibition in vivo at 20 mg/kg: 0.5 h, 20 mg/kg in 0.5% CMC, oral, 30 minutes before antigen challenge. As to the method:
as §1
In this test, the antiserum described in Test Example 1 was used after it was diluted with saline so as to provide a blue spot having a diameter of about 10 mm in the following control group.
Sprague-Dowley male rats weighing about 180 g (5 rats per group) were sensitized by injecting 0.05 ml of the diluted antiserum into the shaved dorsal skin. 48 hours later, the animals were challenged with 1 ml of saline containing 5 mg of egg albumin and 5 mg of Evans blue dye administered via a tail vein. 30 minutes later, the rats were sacrificed by decapitation. The dorsal skin was removed, and the long and short axis of the each wheal was measured.
In this test, the test compound was administered as follows. 20 mg of a test compound was suspended in a 0.5% CMC aqueous solution, and the suspension was administered to each of the rats in an amount of 20 mg/kg 30 minutes before the antigen challenge. For a control group, only a 0.5% CMC solution was administered.
The inhibitory activity on the PCA reaction in the treated group was calculated by the following formula: [formula] wherein: a represents a mean value of blue spot area in the control group.
b represents a mean value of blue spot area in the treated group.

The test system is the same in series [5]. The series can be described thus: Passive cutaneous anaphylaxis (PCA) test. The note with it: 0.5 h; rat PCA; DSCG administered at 100 mg/kg of body weight. It counts as in vivo, Sprague-Dowley male rats.
The conditions of series [6]: background art; cited from earlier work.

One may read the LD50 as the dose at which mortality reaches 50%. A word on the inhibition in vivo: it is the drop in the measured response relative to a control, in per cent. Lower therefore signals a response near the control.

Consider `CC(C)(C)c1ccc(-c2nn3c(=O)c4[nH]nnc4nc3s2)cc1` [Example 1, 6-(4-tert-Butylphenyl)-[1,3,4]thiadiazolo[3,2-a][1,2,3]triazolo[4,5-d]pyrimidin-9(1H)-one], for which the 50% lethal dose (LD50) in series [1] was > 2000 mg/kg. For the same compound, the inhibition in vivo at 1 mg/kg in series [2] is 83%; in series [3], 64%. In series [4], this compound showed an inhibition in vivo at 20 mg/kg of 46%.

`O=c1c2[nH]nnc2nc2sc(-c3ccc(Cl)o3)nn12` [Example 21]: in series [1], the LD50 was > 2000 mg/kg. Moreover, the inhibition in vivo at 20 mg/kg in series [4] is 35%.

As for `COc1cccc(-c2nn3c(=O)c4[nH]nnc4nc3s2)c1OC` [Example 11], the inhibition in vivo at 1 mg/kg in series [2] was found to be 89%; in series [3] it was 66%. This compound returned an inhibition in vivo at 20 mg/kg in series [4] of 32%.

Take `Cc1ccc(CCc2nn3c(=O)c4[nH]nnc4nc3s2)cc1` [Example 50]: the LD50 in series [1] was > 2000 mg/kg.

As to `O=c1c2[nH]nnc2nc2sc(Cc3ccccc3)nn12` [Example 42], the LD50 in series [1] was > 2000 mg/kg. In addition, the inhibition in vivo at 1 mg/kg in series [2] came to 99%; in series [3], 54%. The compound also yielded an inhibition in vivo at 20 mg/kg in series [4] of 48%.

With `O=c1c2[nH]nnc2nc2sc(CCc3ccccc3)nn12` [Example 9, 6-(2-Phenylethyl)-[1,3,4]thiadiazolo[3,2-a][1,2,3]triazolo[4,5-d]pyrimidin-9(1H)-one], the LD50 in series [1] was > 2000 mg/kg. The inhibition in vivo at 1 mg/kg was 80% in series [2] and 50% in series [3]. This compound also yielded an inhibition in vivo at 20 mg/kg in series [4] of 52%.

On to `O=c1c2[nH]nnc2nc2sc(CCc3ccc(Cl)cc3)nn12` [Example 55], for which the LD50 in series [1] is > 2000 mg/kg.

For `O=c1c2[nH]nnc2nc2sc(CCc3ccc(F)cc3)nn12` [Example 53], the LD50 in series [1] is > 2000 mg/kg.

`O=c1c2[nH]nnc2nc2sc(-c3cccs3)nn12` [Example 23]: the LD50 in series [1] was > 2000 mg/kg. In addition, the results for the inhibition in vivo at 1 mg/kg in series [2] and in series [3] were 84% and 51%, respectively. Moreover, in series [4], 20 mg/kg produced 31% inhibition in vivo.

As to `O=c1c2[nH]nnc2nc2sc(-c3ccc4c(c3)OCO4)nn12` [Example 12], the inhibition in vivo at 1 mg/kg in series [2] came to 87%; in series [3], 52%. This compound came in with an inhibition in vivo at 20 mg/kg in series [4] of 36%.

As to `Cc1ccc(-c2nn3c(=O)c4[nH]nnc4nc3s2)cc1` [Example 80, 6-(4-Methylphenyl)-[1,3,4]thiadiazolo[3,2-a][1,2,3]triazolo[4,5-d]pyrimidin-9(1H)-one monohydrate], the inhibition in vivo at 1 mg/kg in series [2] amounted to 91%; in series [3], 42%. 20 mg/kg produced 31% inhibition in vivo in series [4].

`O=c1c2[nH]nnc2nc2sc(CCc3cccc(Cl)c3)nn12` [Example 54]: the LD50 in series [1] is > 2000 mg/kg.

`O=C(O)c1cc(=O)c2c(OCC(O)COc3cccc4oc(C(=O)O)cc(=O)c34)cccc2o1` [DSCG, Sodium Cromoglycate, reference compound] gave an inhibition in vivo at 1 mg/kg in series [2] of 93%. Also, in series [3], at 1 mg/kg the inhibition in vivo was 0% and the “inhibition of release of SRS-A in the PPA reaction (in words)” value is “did not inhibit the release of SRS-A in the PPA reaction”. In addition, 100 mg/kg produced 8% inhibition in vivo in series [5]. Also, the “effectiveness in oral administration (in words)” value in series [6] was “not effective in oral administration”. Besides, in series [4] (oral administration), the “inhibition of the PCA reaction in oral administration (in words)” value is given as “did not inhibit the PCA reaction in oral administration”.

As for `Cc1ccccc1CCc1nn2c(=O)c3[nH]nnc3nc2s1` [Example 48], the LD50 in series [1] was > 2000 mg/kg.

In the case of `Cc1cccc(CCc2nn3c(=O)c4[nH]nnc4nc3s2)c1` [Example 49], the LD50 in series [1] is > 2000 mg/kg.

Consider `Cc1ccc(-c2nn3c(=O)c4[nH]nnc4nc3s2)o1` [Example 18], for which the LD50 in series [1] is > 2000 mg/kg.

Consider `O=c1c2[nH]nnc2nc2sc(-c3ccco3)nn12` [Example 17], for which the LD50 in series [1] was > 2000 mg/kg. For the same compound, the inhibition in vivo at 1 mg/kg is 82% in series [2] and 55% in series [3]. The compound also gave an inhibition in vivo at 20 mg/kg in series [4] of 50%.

For the compound `O=c1c2[nH]nnc2nc2sc(-c3ccccc3)nn12` [Example 47], in series [1], the LD50 was > 2000 mg/kg. In addition, testing at 20 mg/kg in series [4] gave an inhibition in vivo of 38%.

For `O=c1c2[nH]nnc2nc2sc(-c3ccc(Cl)s3)nn12` [Example 32], the results for the inhibition in vivo at 1 mg/kg in series [2] and in series [3] were 87% and 63%, respectively. Further, the inhibition in vivo at 20 mg/kg in series [4] was determined as 35%.

For `CC1CCc2sc(-c3nn4c(=O)c5[nH]nnc5nc4s3)cc2C1` (centres unmarked) [Example 36], the values for the inhibition in vivo at 1 mg/kg in series [2] and in series [3] were 83% and 41%, respectively. 20 mg/kg produced 40% inhibition in vivo in series [4].

As for `O=c1c2[nH]nnc2nc2sc(-c3cc4c(s3)CCC4)nn12` [Example 33], the inhibition in vivo at 1 mg/kg in series [2] was 82%; in series [3], 70%. Also, the inhibition in vivo at 20 mg/kg in series [4] amounted to 47%.

Consider `CC(C)(C)c1ccc(-c2nn3c(=O)c4[nH]nnc4nc3s2)o1` [Example 20], for which the LD50 in series [1] was > 2000 mg/kg.
